Experimental data: PubChem BioAssay (NCI)
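Five concentrations, 48 hours, 96-well plates. The concentration for full growth arrest is given as TGI.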

How the values were obtained:
Experiment in all cases: DTP human tumour cell line panel, 48 h
786-0 renal = test system: 786-0 renal
A498 renal = test system: A498 renal
A549 NSCLC = test system: A549 NSCLC
ACHN renal = test system: ACHN renal
BT-549 breast = test system: BT-549 breast
CAKI-1 renal = test system: CAKI-1 renal
CCRF-CEM leukemia = test system: CCRF-CEM leukemia
COLO 205 colon = test system: COLO 205 colon
DU-145 prostate = test system: DU-145 prostate
EKVX NSCLC = test system: EKVX NSCLC
HCC-2998 colon = test system: HCC-2998 colon
HCT-116 colon = test system: HCT-116 colon
HCT-15 colon = test system: HCT-15 colon
HL-60(TB) leukemia = test system: HL-60(TB) leukemia
HOP-62 NSCLC = test system: HOP-62 NSCLC
HOP-92 NSCLC = test system: HOP-92 NSCLC
HS 578T breast = test system: HS 578T breast
HT29 colon = test system: HT29 colon
IGROV1 ovarian = test system: IGROV1 ovarian
K-562 leukemia = test system: K-562 leukemia
KM12 colon = test system: KM12 colon
LOX IMVI melanoma = test system: LOX IMVI melanoma
M14 melanoma = test system: M14 melanoma
MALME-3M melanoma = test system: MALME-3M melanoma
MCF7 breast = test system: MCF7 breast
MDA-MB-231 breast = test system: MDA-MB-231 breast
MDA-MB-435 = test system: MDA-MB-435
MOLT-4 leukemia = test system: MOLT-4 leukemia
NCI-H226 lung = test system: NCI-H226 lung
NCI-H23 lung = test system: NCI-H23 lung
NCI-H460 lung = test system: NCI-H460 lung
NCI-H522 lung = test system: NCI-H522 lung
NCI/ADR-RES ovarian = test system: NCI/ADR-RES ovarian
OVCAR-3 ovarian = test system: OVCAR-3 ovarian
OVCAR-4 ovarian = test system: OVCAR-4 ovarian
OVCAR-5 ovarian = test system: OVCAR-5 ovarian
OVCAR-8 ovarian = test system: OVCAR-8 ovarian
PC-3 prostate = test system: PC-3 prostate
RPMI-8226 leukemia = test system: RPMI-8226 leukemia
RXF 393 renal = test system: RXF 393 renal
SF-268 CNS = test system: SF-268 CNS
SF-295 CNS = test system: SF-295 CNS
SF-539 CNS = test system: SF-539 CNS
SK-MEL-2 melanoma = test system: SK-MEL-2 melanoma
SK-MEL-28 melanoma = test system: SK-MEL-28 melanoma
SK-MEL-5 melanoma = test system: SK-MEL-5 melanoma
SK-OV-3 ovarian = test system: SK-OV-3 ovarian
SN12C renal = test system: SN12C renal
SNB-19 CNS = test system: SNB-19 CNS
SNB-75 CNS = test system: SNB-75 CNS
SR leukemia = test system: SR leukemia
SW-620 colon = test system: SW-620 colon
T-47D breast = test system: T-47D breast
TK-10 renal = test system: TK-10 renal
U251 CNS = test system: U251 CNS
UACC-257 melanoma = test system: UACC-257 melanoma
UACC-62 melanoma = test system: UACC-62 melanoma
UO-31 renal = test system: UO-31 renal

Structure (SMILES): Nc1cccc(/C=C/CN2CCN(CCOC(c3ccccc3)c3ccccc3)CC2)c1
- TGI (786-0 renal): 30.5 µM
- TGI (A498 renal): 32.5 µM
- TGI (A549 NSCLC): 29.7 µM
- TGI (ACHN renal): 32.2 µM
- TGI (BT-549 breast): 29.9 µM
- TGI (CAKI-1 renal): 34.1 µM
- TGI (CCRF-CEM leukemia): 25.7 µM
- TGI (COLO 205 colon): 20.9 µM
- TGI (DU-145 prostate): 26.4 µM
- TGI (EKVX NSCLC): 32 µM
- TGI (HCC-2998 colon): 11.9 µM
- TGI (HCT-116 colon): 25.4 µM
- TGI (HCT-15 colon): 26.1 µM
- TGI (HL-60(TB) leukemia): 22.9 µM
- TGI (HOP-62 NSCLC): 26.9 µM
- TGI (HOP-92 NSCLC): 25.4 µM
- TGI (HS 578T breast): 48 µM
- TGI (HT29 colon): 13.1 µM
- TGI (IGROV1 ovarian): 30.1 µM
- TGI (K-562 leukemia): 16.3 µM
- TGI (KM12 colon): 25.4 µM
- TGI (LOX IMVI melanoma): 28.9 µM
- TGI (M14 melanoma): 25.9 µM
- TGI (MALME-3M melanoma): 34.7 µM
- TGI (MCF7 breast): 29.4 µM
- TGI (MDA-MB-231 breast): 30.3 µM
- TGI (MDA-MB-435): 28.1 µM
- TGI (MOLT-4 leukemia): 19.2 µM
- TGI (NCI-H226 lung): 40.4 µM
- TGI (NCI-H23 lung): 30.7 µM
- TGI (NCI-H460 lung): 27.7 µM
- TGI (NCI-H522 lung): 27.7 µM
- TGI (NCI/ADR-RES ovarian): 29.5 µM
- TGI (OVCAR-3 ovarian): 29.1 µM
- TGI (OVCAR-4 ovarian): 27.7 µM
- TGI (OVCAR-5 ovarian): 30.5 µM
- TGI (OVCAR-8 ovarian): 30.1 µM
- TGI (PC-3 prostate): 30 µM
- TGI (RPMI-8226 leukemia): 15.2 µM
- TGI (RXF 393 renal): 25.5 µM
- TGI (SF-268 CNS): 35.7 µM
- TGI (SF-295 CNS): 31.4 µM
- TGI (SF-539 CNS): 31.7 µM
- TGI (SK-MEL-2 melanoma): 33.6 µM
- TGI (SK-MEL-28 melanoma): 27.1 µM
- TGI (SK-MEL-5 melanoma): 26.8 µM
- TGI (SK-OV-3 ovarian): 27 µM
- TGI (SN12C renal): 36 µM
- TGI (SNB-19 CNS): 30.7 µM
- TGI (SNB-75 CNS): 22.7 µM
- TGI (SR leukemia): 17.4 µM
- TGI (SW-620 colon): 33.9 µM
- TGI (T-47D breast): 26 µM
- TGI (TK-10 renal): 29.6 µM
- TGI (U251 CNS): 30.5 µM
- TGI (UACC-257 melanoma): 31.1 µM
- TGI (UACC-62 melanoma): 31.7 µM
- TGI (UO-31 renal): 27.4 µM
